From PubChem BioAssay AID1963973 (Molecular Pharmacology Branch, DTP, NCI, 2024)

Tested on: 883617-216-R-J1-PDC tumor spheroids, viability
Test: Anticancer human tumor 883617-216-R-J1-PDC patient-derived bladder carcinoma cell line growth inhibition [PI3K]
Conditions: spheroids with HUVEC and MSC; for IC50: curve of first compound; for viability, T/C: stronger effect = lower value
How it was run: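 Three cell types, namely tumor cells, endothelial cells and mesenchymal stem cells, formed each spheroid. Combinations with four PI3K inhibitors were screened at clinically achievable concentrations decreasing by half-log, and spheroid viability was recorded.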

[1] = second compound 0.0316 µM, first compound 0.0316 µM
[2] = second compound 0.0316 µM, first compound 0.1 µM
[3] = second compound 0.0316 µM, first compound 0.316 µM
[4] = second compound 0.0316 µM, first compound 1 µM
[5] = second compound 0.1 µM, first compound 0.0316 µM
[6] = second compound 0.1 µM, first compound 0.1 µM
[7] = second compound 0.1 µM, first compound 0.316 µM
[8] = second compound 0.1 µM, first compound 1 µM
[9] = second compound 0.316 µM, first compound 0.0316 µM
[10] = second compound 0.316 µM, first compound 0.1 µM
[11] = second compound 0.316 µM, first compound 0.316 µM
[12] = second compound 0.316 µM, first compound 1 µM
[13] = second compound 1 µM, first compound 0.0316 µM
[14] = second compound 1 µM, first compound 0.1 µM
[15] = second compound 1 µM, first compound 0.316 µM
[16] = second compound 1 µM, first compound 1 µM
[17] = second compound 3.16 µM, first compound 0.0316 µM
[18] = second compound 3.16 µM, first compound 0.1 µM
[19] = second compound 3.16 µM, first compound 0.316 µM
[20] = second compound 3.16 µM, first compound 1 µM
[21] = second compound 10 µM, first compound 0.0316 µM
[22] = second compound 10 µM, first compound 0.1 µM
[23] = second compound 10 µM, first compound 0.316 µM
[24] = second compound 10 µM, first compound 1 µM
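Also: spheroids exposed to agents for 7 days before the viability read.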

Which results are given for `CCN1CCN(Cc2ccc(Nc3ncc(F)c(-c4cc(F)c5nc(C)n(C(C)C)c5c4)n3)nc2)CC1` + CC(Nc1ncnc2nc[nH]c12)c1cc2cccc(Cl)c2c(=O)n1-c1ccccc1?
IC50 (second compound 0.0316 µM): > 1000 nM; IC50 (second compound 0.1 µM): > 1000 nM; IC50 (second compound 0.316 µM): 582 nM; IC50 (second compound 1 µM): 282 nM; IC50 (second compound 3.16 µM): 31.9 nM; IC50 (second compound 10 µM): 3.37 nM; viability, T/C (second compound 0.0316 µM, first compound 0.00316 µM): 91.4%; viability, T/C (second compound 0.0316 µM, first compound 0.01 µM): 79.4%; viability, T/C [1]: 79.2%; viability, T/C [2]: 65.7%; viability, T/C [3]: 56.3%; viability, T/C [4]: 51.3%; viability, T/C (second compound 0.1 µM, first compound 0.00316 µM): 89.3%; viability, T/C (second compound 0.1 µM, first compound 0.01 µM): 88.8%; viability, T/C [5]: 71.6%; viability, T/C [6]: 60.2%; viability, T/C [7]: 64.1%; viability, T/C [8]: 50.7%; viability, T/C (second compound 0.316 µM, first compound 0.00316 µM): 87.5%; viability, T/C (second compound 0.316 µM, first compound 0.01 µM): 78.4%; viability, T/C [9]: 60.8%; viability, T/C [10]: 67.8%; viability, T/C [11]: 46%; viability, T/C [12]: 49.6%; viability, T/C (second compound 1 µM, first compound 0.00316 µM): 69.6%; viability, T/C (second compound 1 µM, first compound 0.01 µM): 69.4%; viability, T/C [13]: 59.3%; viability, T/C [14]: 52.2%; viability, T/C [15]: 54.8%; viability, T/C [16]: 40.2%; viability, T/C (second compound 3.16 µM, first compound 0.00316 µM): 72.5%; viability, T/C (second compound 3.16 µM, first compound 0.01 µM): 61.9%; viability, T/C [17]: 50.3%; viability, T/C [18]: 40.7%; viability, T/C [19]: 40.1%; viability, T/C [20]: 35.2%; viability, T/C (second compound 10 µM, first compound 0.00316 µM): 51.3%; viability, T/C (second compound 10 µM, first compound 0.01 µM): 34.8%; viability, T/C [21]: 34%; viability, T/C [22]: 30.8%; viability, T/C [23]: 28.1%; viability, T/C [24]: 27%

What does the source list for `CC(C)NCC(C(=O)N1CCN(c2ncnc3c2C(C)CC3O)CC1)c1ccc(Cl)cc1` (centres undefined) + Cc1nc(NC(=O)N2CCCC2C(N)=O)sc1-c1ccnc(C(C)(C)C(F)(F)F)c1?
IC50 (second compound 0.0316 µM): 403 nM; IC50 (second compound 0.1 µM): 213 nM; IC50 (second compound 0.316 µM): < 31.6 nM; IC50 (second compound 1 µM): < 31.6 nM; IC50 (second compound 3.16 µM): < 31.6 nM; IC50 (second compound 10 µM): < 31.6 nM; viability, T/C [1]: 77%; viability, T/C [2]: 67.7%; viability, T/C [3]: 57.6%; viability, T/C [4]: 27.9%; viability, T/C (second compound 0.0316 µM, first compound 3.16 µM): 13.8%; viability, T/C (second compound 0.0316 µM, first compound 10 µM): 8.01%; viability, T/C [5]: 72.8%; viability, T/C [6]: 60.1%; viability, T/C [7]: 45.5%; viability, T/C [8]: 26.7%; viability, T/C (second compound 0.1 µM, first compound 3.16 µM): 16.2%; viability, T/C (second compound 0.1 µM, first compound 10 µM): 6.45%; viability, T/C [9]: 37.7%; viability, T/C [10]: 41%; viability, T/C [11]: 36.6%; viability, T/C [12]: 22.6%; viability, T/C (second compound 0.316 µM, first compound 3.16 µM): 10.9%; viability, T/C (second compound 0.316 µM, first compound 10 µM): 4.92%; viability, T/C [13]: 30.4%; viability, T/C [14]: 29.9%; viability, T/C [15]: 24.4%; viability, T/C [16]: 15.2%; viability, T/C (second compound 1 µM, first compound 3.16 µM): 8.01%; viability, T/C (second compound 1 µM, first compound 10 µM): 4.96%; viability, T/C [17]: 17.9%; viability, T/C [18]: 10.5%; viability, T/C [19]: 10.3%; viability, T/C [20]: 9.2%; viability, T/C (second compound 3.16 µM, first compound 3.16 µM): 8.98%; viability, T/C (second compound 3.16 µM, first compound 10 µM): 3.73%; viability, T/C [21]: 7.03%; viability, T/C [22]: 5.88%; viability, T/C [23]: 5.22%; viability, T/C [24]: 5.21%; viability, T/C (second compound 10 µM, first compound 3.16 µM): 3.1%; viability, T/C (second compound 10 µM, first compound 10 µM): 2.33%
